Source: patent US20250066778A1, “METHODS AND MATERIALS FOR TREATING HEART ATTACK” (THE JOHNS HOPKINS UNIVERSITY, priority 2022, published 2025)

Tests used:
[1] = tested on: Per1/Per2 DKO neonatal mouse cardiomyocytes; experiment: Gene expression (qPCR) in cultured cardiomyocytes from Per1/Per2 DKO neonatal mouse hearts after treatment; assay type: cell-based; conditions: for expression of cell cycle / mitosis regulating genes: norepinephrine 1 μM (FIG. 4C); for Wee1 gene expression: norepinephrine 1 μM (FIG. 5E)
From the text: Sm22a-Cre (017491) and C57BL/6 mice were obtained from Jackson Lab. NGF +/− mice, Per1/Per2 DKO mice, and Mesp1-Cre mice were as described elsewhere (see, e.g., Wheeler et al., Neuron, 82: 587-602 (2014); Muller et al., J. Neurosci., 32: 14885-14898 (2012); and Saga et al., Development, 126: 3437-3447 (1999)). The animals were randomly allocated to experimental groups and both male and female mice were equally used in all experimental assays. All mouse hearts and cardiomyocytes were harvested at random times during the day unless specified otherwise. Cardiomyocytes were isolated from P0 or P1 mouse hearts using a neonatal cardiomyocyte isolation kit (Miltenyi Biotec) based on manufacturer's instructions. Before plating, cardiomyocytes were filtered through a 70 μm mesh and single cells were cultured in 24-well plates coated with gelatin. The cells were first maintained in 5% fetal bovine serum (FBS) in DMEM with Pen/Strep antibiotics for 24 hours and subsequently treated for at least 2 hours with 50% horse serum in DMEM and then for 2 days with 5% FBS in DMEM. Cardiomyocytes were treated with Norepinephrine (1 μM) (Sigma) or Nerve Growth Factor (NGF, 20 ng/ml) (PeproTech) as indicated. RNA was isolated from mouse hearts and cultured cardiomyocytes using Trizol, and cDNA was generated using the high-capacity cDNA reverse transcription kit (Applied Biosystems). qPCR reactions were performed using the Sybr Select qPCR mix (Thermo Fisher) with indicated primers. Gene expression levels were normalized to Gapdh or Rpl32.

[2] = tested on: wild type neonatal mouse cardiomyocytes (NMCMs); experiment: Gene expression (qPCR) in cultured wild type neonatal mouse cardiomyocytes after treatment; assay type: cell-based; conditions: for expression of mitosis regulating genes / Wee1 gene expression / expression of clock (circadian) genes: wild type NMCMs; for expression of mitosis regulating genes: norepinephrine 1 μM (FIG. 4C); for Wee1 gene expression: norepinephrine 1 μM (FIG. 5E); for expression of clock (circadian) genes: reset with 50% serum, norepinephrine 1 μM, after 48 hrs of treatment (FIG. 4B)
Procedure: Cardiomyocytes were isolated from P0 or P1 mouse hearts using a neonatal cardiomyocyte isolation kit (Miltenyi Biotec) based on manufacturer's instructions. Before plating, cardiomyocytes were filtered through a 70 μm mesh and single cells were cultured in 24-well plates coated with gelatin. The cells were first maintained in 5% fetal bovine serum (FBS) in DMEM with Pen/Strep antibiotics for 24 hours and subsequently treated for at least 2 hours with 50% horse serum in DMEM and then for 2 days with 5% FBS in DMEM. Cardiomyocytes were treated with Norepinephrine (1 μM) (Sigma) or Nerve Growth Factor (NGF, 20 ng/ml) (PeproTech) as indicated.
RNA was isolated from mouse hearts and cultured cardiomyocytes using Trizol, and cDNA was generated using the high-capacity cDNA reverse transcription kit (Applied Biosystems). qPCR reactions were performed using the Sybr Select qPCR mix (Thermo Fisher) with indicated primers. Gene expression levels were normalized to Gapdh or Rpl32.

| Molecule | expression of cell cycle / mitosis regulating genes [1] | expression of cell cycle / mitosis regulating genes ([1]; listed as norepinephrine) | Wee1 gene expression [1] | Wee1 gene expression ([1]; listed as norepinephrine) | expression of mitosis regulating genes [2] | expression of mitosis regulating genes ([2]; listed as norepinephrine) | Wee1 gene expression [2] | Wee1 gene expression ([2]; listed as norepinephrine) | expression of clock (circadian) genes [2] | expression of clock (circadian) genes ([2]; listed as norepinephrine) | cell cycle gene expression ([2]; ex vivo treatment of NMCMs with NGF 20 ng/ml (FIG. 9E)) |
| --- | --- | --- | --- | --- | --- | --- | --- | --- | --- | --- | --- |
| NC[C@H](O)c1ccc(O)c(O)c1 [Norepinephrine] | failed to suppress mitosis regulating genes apart from Aurkb | no significant effect on cell cycle genes apart from Aurkb | this effect was not observed in Per1/Per2 DKO cardiomyocytes | this effect was not observed in the absence of Per1/Per2 | decreased the expression of mitosis regulating genes | suppressed mitosis genes | induced Wee1 gene expression | induces Wee1 expression | induces the expression of circadian genes | induced Per1 and Per2 as well as Cryptochrome1 (Cry1) and Cry2 genes | – |
| NGF: Nerve Growth Factor (PeproTech), used at 20 ng/ml on neonatal mouse cardiomyocytes | – | – | – | – | – | – | – | – | – | – | did not affect cell cycle gene expression |
